Results taken from PMC9917099, “The Mycotoxin Patulin Inhibits the Mitochondrial Carnitine/Acylcarnitine Carrier (SLC25A20) by Interaction with Cys136 Implications for Human Health” (International Journal of Molecular Sciences, 2023).

Legend:
[1] = target: T1, rat CAC mutant C23V/C58V/C89S/C155V/C283S (Rattus norvegicus, UniProt P97521, C155V/C23V/C283S/C58V/C89S); assay: Carnitine antiport in proteoliposomes, CAC mutant containing only C136; format: biochemical
T1 construct: made in house; host or cells: E. coli C0214 (pMW7, inclusion bodies)
T1 sequence (P97521 1-301 C23V/C58V/C89S/C155V/C283S): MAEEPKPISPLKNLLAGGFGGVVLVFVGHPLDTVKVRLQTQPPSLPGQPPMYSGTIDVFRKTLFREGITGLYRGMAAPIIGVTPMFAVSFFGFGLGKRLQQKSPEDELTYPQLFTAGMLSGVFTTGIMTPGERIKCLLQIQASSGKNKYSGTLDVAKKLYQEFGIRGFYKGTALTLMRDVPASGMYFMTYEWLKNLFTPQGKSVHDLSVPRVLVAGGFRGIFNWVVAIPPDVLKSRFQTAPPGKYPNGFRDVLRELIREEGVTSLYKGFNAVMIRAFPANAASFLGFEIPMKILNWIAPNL
Procedure: To shed light on the interaction between PAT and CAC and verify if specific Cys residues were involved, transport experiments on the recombinant rat and human WT CAC and CAC’s rat Cys mutants were performed. As in the case of the native protein, transport activities were measured as [^3H]-carnitine/carnitine antiport in proteoliposomes. […] The PAT inhibition of the WT recombinant protein was only slightly greater compared to the native protein, although compounds and other molecular systems that affect the mycotoxin binding to the native CAC were absent (see above). For identifying the residues involved in the PAT interaction, site-directed Cys mutants were tested for inhibition (Figure 2). […]
Figure 2 Dose-response analysis of the PAT inhibition of the CAC recombinant proteins. […] The data are expressed as a percentage of the controls (no PAT addition) and are means ± SD of three independent experiments. […]
For the transport assay, 550 μL of proteoliposomes were passed through a Sephadex G-75 column in order to remove the external substrate. […] After finishing the transport reaction, the external radiolabel substrate was removed by gel filtration chromatography (Sephadex G-75), and the intraliposomal radioactivity was measured by liquid scintillation. Transport was measured at 25 °C. […] Transport rates were measured in 10 min, i.e., within the initial linear range of the time course.

[2] = Stability of PAT solution stored at room temperature, read out as inhibition of recombinant WT CAC transport; format: physicochemical; settings: 25 and 50 µM PAT, stored at r.t., 24 and 72 h
From the text: Figure 3A reports the interaction of PAT with the reconstituted WT protein. The inhibition observed after the pretreatment of proteoliposomes with the mycotoxin was not reversed by DTE, confirming the formation of an irreversible covalent bond between CAC and PAT also with the purified recombinant protein (see above Figure 1B). For evaluating the stability of the drug following prolonged storage, we measured the inhibition of the transport activity of WT adding to the samples, at various time, the same PAT solution stored at room temperature (r.t.).
Figure 3 (A) Reversal of PAT inhibition on recombinant protein by DTE. The carnitine homo-exchange transport activity was measured, as described in Materials and Methods, adding 0.1 mM [^3H] carnitine to proteoliposomes reconstituted with the recombinant WT CAC containing 15 mM internal carnitine in the absence or presence of 50 μM PAT, added 30 min before the labelled substrate. 5 mM dithioerythritol (DTE) was added 1 min before the transport assay in a control and PAT treated aliquot, respectively. […] Proteoliposomes reconstituted with the WT CAC were incubated by the same PAT solution (25 and 50 µM) after 0.5 h, 24 h and 72 h (white, grey and black bars, respectively) and then the transport activity was measured by adding 0.1 mM [^3H]-carnitine and stopped after 30 min as described in Materials and Methods.

For `O=C1C=C2C(=CCOC2O)O1` (centres unmarked) [PAT, 4-hydroxy-4H-furo [3,2c] pyran-2 [6H] -one], the IC50 [1] was “comparable to the WT” and the “reactivity towards CAC of stored PAT solution” value [2] was “does not change”.
